Assay results from patent US20160212997A1, “AGRICULTURAL CHEMICALS” (REDAG CROP PROTECTION LTD, priority 2013, published 2016).
Read-outs that look alike come from different tables or passages of the source.

Legend:
Type in all cases: in vivo
[1] = system: aphids, Myzus persicae; assay: Potter tower spray on aphids, knockdown and mortality; conditions: Aphids; for pest or weed control at 0.1 % strength: Myzus persicae, 0.1 % w/v, read-out: Average of % corrected affected
Description: (§1) The compounds were screened for insecticidal efficacy against aphids, Myzus persicae, Cabbage moth, Mamestra brassicae, diamond black moths, Plutella xylostella, red spider mites, Tetranychus urticae, whitefly, Trialeurodes vaporariorum, in terms of knockdown and mortality.
(§2) Myzus persicae, Cabbage moth, Mamestra brassicae, diamond back moths, Plutella xylostella, red spider mites, Tetranychus urticae, whitefly, Trialeurodes vaporariorum, were obtained from specified laboratory cultures. Mixed sex and age aphids and mites, moth larvae and whitefly scale infested leaves were used in the experiments. Environmental conditions were closely monitored and recorded and were within the optimal range of the target species.
(§3) The compounds were screened at a range of five concentrations, diluted in DMSO. Some of the compounds were screened against aphids, whitefly and red spider mites and other compounds were screened against cabbage moth, and diamond black moths. A carrier only and an untreated control will also be conducted. Treatments were applied directly onto the insects within Petri dishes, using a potter tower.
(§4) Twenty mites and ten aphids, scales and moth larvae were placed within a Petri dish, lined with a suitable leaf disc on a damp cotton wool pad. Scales were already on leaves. The Petri dishes were then sprayed using a potter tower. The number of knocked down and anthropods were assessed at 24 and 48 hours post treatment. Five replicates were be performed for each treatment, for each species.
(§5) For Tables 2, 4, 5 and 6, the compounds were diluted in DMSO containing 1% v/v Tween 20™. For Tables 2, 4, 5 and 6, the caterpillars were a mixture of Mamestra brassicae and Lacanobia oleracea.

[2] = system: red spider mites, Tetranychus urticae; assay: Potter tower spray on red spider mites, knockdown and mortality; conditions: for percentage control: Spider mites; for activity against spider mites compared with the reference compound: versus flupyradifurone or sulfoxaflor respectively, tables 1 and 3
Description: as §1, §2, §3, §4

[3] = system: caterpillars, a mixture of Mamestra brassicae and Lacanobia oleracea; assay: Potter tower spray on caterpillars, knockdown and mortality; conditions: Caterpillars, read-out: Average of % corrected affected; for pest or weed control at 0.1 % strength: 0.1 % w/v; for pest or weed control at 0.00625 % strength: 0.00625 % w/v; for pest or weed control at 0.0125 % strength: 0.0125 % w/v; for pest or weed control at 0.025 % strength: 0.025 % w/v; for pest or weed control at 0.05 % strength: 0.05 % w/v
Description: as §2, §3, §4, §5

[4] = 24 h, 24 hours post application
[5] = 48 h, 48 hours post application

SMILES	percentage control ([1]; 25 g/ha, 24 h)	percentage control ([1]; 25 g/ha, 48 h)	percentage control ([1]; 50 g/ha, 24 h)	percentage control ([1]; 50 g/ha, 48 h)	percentage control ([1]; 100 g/ha, 24 h)	percentage control ([1]; 100 g/ha, 48 h)	percentage control ([1]; 200 g/ha, 24 h)	percentage control ([1]; 200 g/ha, 48 h)	percentage control ([2]; 25 g/ha, 24 h)	percentage control ([2]; 25 g/ha, 48 h)	percentage control ([2]; 50 g/ha, 24 h)	percentage control ([2]; 50 g/ha, 48 h)	percentage control ([2]; 100 g/ha, 24 h)	percentage control ([2]; 100 g/ha, 48 h)	percentage control ([2]; 200 g/ha, 24 h)	percentage control ([2]; 200 g/ha, 48 h)	percentage control ([1]; 12.5 g/ha, 24 h)	percentage control ([1]; 12.5 g/ha, 48 h)	pest or weed control at 0.1 % strength [1, 4]	pest or weed control at 0.1 % strength [1, 5]	also measured
O=C1C=C(N(Cc2ccc(Cl)nc2)CC(F)F)CO1 [Compound 1, 3-[(6-Chloro-3-pyridyl)methyl-(2,2-difluoroethyl)amino]-2H-furan-5-one, reference compound]	E (A percentage control of from 1 to 19 is indicated by the letter E)	C (A percentage control of from 40 to 59 is indicated by the letter C)	D (A percentage control of from 20 to 39 is indicated by the letter D)	A (A percentage control of from 80 to 100 is indicated by the letter A)	D (A percentage control of from 20 to 39 is indicated by the letter D)	A (A percentage control of from 80 to 100 is indicated by the letter A)	C (A percentage control of from 40 to 59 is indicated by the letter C)	A (A percentage control of from 80 to 100 is indicated by the letter A)	D (A percentage control of from 20 to 39 is indicated by the letter D)	D (A percentage control of from 20 to 39 is indicated by the letter D)	D (A percentage control of from 20 to 39 is indicated by the letter D)	D (A percentage control of from 20 to 39 is indicated by the letter D)	E (A percentage control of from 1 to 19 is indicated by the letter E)	D (A percentage control of from 20 to 39 is indicated by the letter D)	D (A percentage control of from 20 to 39 is indicated by the letter D)	D (A percentage control of from 20 to 39 is indicated by the letter D)					percentage control ([1]; 400 g/ha, 24 h): B (A percentage control of from 60 to 79 is indicated by the letter B); percentage control ([1]; 400 g/ha, 48 h): A (A percentage control of from 80 to 100 is indicated by the letter A); percentage control ([2]; 400 g/ha, 24 h): D (A percentage control of from 20 to 39 is indicated by the letter D); percentage control ([2]; 400 g/ha, 48 h): C (A percentage control of from 40 to 59 is indicated by the letter C)
CC(c1ccc(C(F)(F)F)nc1)S(C)(=O)=NS(C)(=O)=O (stereo not drawn) [Compound 14, N-[methyl-oxo-[1-[6-(trifluoromethyl)-3-pyridyl]ethyl]-λ^6-sulfanylidene]methane-sulfonamide]	E (A percentage control of from 1 to 19 is indicated by the letter E)	E (A percentage control of from 1 to 19 is indicated by the letter E)	E (A percentage control of from 1 to 19 is indicated by the letter E)	D (A percentage control of from 20 to 39 is indicated by the letter D)	E (A percentage control of from 1 to 19 is indicated by the letter E)	D (A percentage control of from 20 to 39 is indicated by the letter D)	E (A percentage control of from 1 to 19 is indicated by the letter E)	D (A percentage control of from 20 to 39 is indicated by the letter D)	C (A percentage control of from 40 to 59 is indicated by the letter C)	C (A percentage control of from 40 to 59 is indicated by the letter C)	D (A percentage control of from 20 to 39 is indicated by the letter D)	C (A percentage control of from 40 to 59 is indicated by the letter C)	C (A percentage control of from 40 to 59 is indicated by the letter C)	B (A percentage control of from 60 to 79 is indicated by the letter B)	B (A percentage control of from 60 to 79 is indicated by the letter B)	B (A percentage control of from 60 to 79 is indicated by the letter B)	E (A percentage control of from 1 to 19 is indicated by the letter E)	D (A percentage control of from 20 to 39 is indicated by the letter D)	20 to 39%	20 to 39%	percentage control ([2]; 12.5 g/ha, 24 h): D (A percentage control of from 20 to 39 is indicated by the letter D); percentage control ([2]; 12.5 g/ha, 48 h): C (A percentage control of from 40 to 59 is indicated by the letter C); activity against spider mites compared with the reference compound [2]: more active than the reference compound; pest or weed control at 0.1 % strength [3, 4]: 1 to 19%; pest or weed control at 0.00625 % strength [3, 5]: 1 to 19%; pest or weed control at 0.0125 % strength [3, 5]: 1 to 19%; pest or weed control at 0.025 % strength [3, 5]: 1 to 19%; pest or weed control at 0.05 % strength [3, 5]: 1 to 19%; pest or weed control at 0.1 % strength [3, 5]: 1 to 19%
COC(=O)N=S(C)(=O)C(C)c1ccc(C(F)(F)F)nc1 (stereo not drawn) [Compound 13, Methyl N-[methyl-oxo-[1-[6-(trifluoromethyl)-3-pyridyl]ethyl]-λ^6-sulfanylidene]carbamate]	E (A percentage control of from 1 to 19 is indicated by the letter E)	D (A percentage control of from 20 to 39 is indicated by the letter D)	E (A percentage control of from 1 to 19 is indicated by the letter E)	D (A percentage control of from 20 to 39 is indicated by the letter D)	E (A percentage control of from 1 to 19 is indicated by the letter E)	E (A percentage control of from 1 to 19 is indicated by the letter E)	D (A percentage control of from 20 to 39 is indicated by the letter D)	C (A percentage control of from 40 to 59 is indicated by the letter C)	D (A percentage control of from 20 to 39 is indicated by the letter D)	C (A percentage control of from 40 to 59 is indicated by the letter C)	D (A percentage control of from 20 to 39 is indicated by the letter D)	B (A percentage control of from 60 to 79 is indicated by the letter B)	D (A percentage control of from 20 to 39 is indicated by the letter D)	B (A percentage control of from 60 to 79 is indicated by the letter B)	D (A percentage control of from 20 to 39 is indicated by the letter D)	B (A percentage control of from 60 to 79 is indicated by the letter B)	E (A percentage control of from 1 to 19 is indicated by the letter E)	D (A percentage control of from 20 to 39 is indicated by the letter D)	20 to 39%	20 to 39%	percentage control ([2]; 12.5 g/ha, 24 h): D (A percentage control of from 20 to 39 is indicated by the letter D); percentage control ([2]; 12.5 g/ha, 48 h): B (A percentage control of from 60 to 79 is indicated by the letter B); activity against spider mites compared with the reference compound [2]: more active than the reference compound; pest or weed control at 0.1 % strength [3, 4]: 1 to 19%; pest or weed control at 0.00625 % strength [3, 5]: 1 to 19%; pest or weed control at 0.0125 % strength [3, 5]: 1 to 19%; pest or weed control at 0.025 % strength [3, 5]: 1 to 19%; pest or weed control at 0.05 % strength [3, 5]: 1 to 19%; pest or weed control at 0.1 % strength [3, 5]: 20 to 39%
